What was measured:
[1] = test system: lambsquarter (Chenopodium album); experiment: Postemergence herbicidal activity; type: in vivo; conditions: Chenopodium album, post-emergence, 336 h, post-emergent, 140 g ai/ha, after 14 days; read-out: % Control CHEAL
Protocol: (§1) Seeds or nutlets of the desired test plant species were planted in Sun Gro MetroMix® 306 planting mixture, which typically has a pH of 6.0 to 6.8 and an organic matter content of about 30 percent, in plastic pots with a surface area of 64 square centimeters. When required to ensure good germination and healthy plants, a fungicide treatment and/or other chemical or physical treatment was applied. The plants were grown for 7-21 days in a greenhouse with an approximate 15 hour photoperiod which was maintained at about 23-29° C. during the day and 22-28° C. during the night. Nutrients and water were added on a regular basis and supplemental lighting was provided with overhead metal halide 1000-Watt lamps as necessary. The plants were employed for testing when they reached the first or second true leaf stage. […] The concentrated stock solutions obtained were diluted with 20 mL of an aqueous mixture containing acetone, water, isopropyl alcohol, DMSO, Atplus 411F crop oil concentrate, and Triton® X-155 surfactant in a 48.5:39:10:1.5:1.0:0.02 v/v ratio to obtain spray solutions containing the highest application rates. […] Compound requirements are based upon a 12 mL application volume at a rate of 187 L/ha. Formulated compounds were applied to the plant material with an overhead Mandel track sprayer equipped with a […] nozzles calibrated to deliver 187 L/ha over an application area of 0.503 square meters at a spray height of 18 inches (43 cm) above the average plant canopy height. Control plants were sprayed in the same manner with the solvent blank. The treated plants and control plants were placed in a greenhouse as described above and watered by sub-irrigation to prevent wash-off of the test compounds. […] By applying the well-accepted probit analysis as described by J. Berkson in Journal of the American Statistical […], 48, 565 (1953) and by D.

[2] = test system: redroot pigweed (Amaranthus retroflexus); experiment: Postemergence herbicidal activity; type: in vivo; conditions: Amaranthus retroflexus, post-emergence, 336 h, post-emergent, 140 g ai/ha, after 14 days; read-out: % Control AMARE
Protocol: as §1

[3] = test system: velvetleaf (Abutilon theophrasti); experiment: Postemergence herbicidal activity; type: in vivo; conditions: Abutilon theophrasti, post-emergence, 336 h, post-emergent, 140 g ai/ha, after 14 days; read-out: % Control ABUTH
Protocol: as §1

SMILES	pest or weed control at 140 g/ha [1]	pest or weed control at 140 g/ha [2]	pest or weed control at 140 g/ha [3]	melting point
COC(=O)c1nc(-c2ccc(Cl)c(C#N)c2F)cc(N)c1Cl [Compound 2, 4-Amino-3-chloro-6-(4-chloro-3-cyano-2-fluorophenyl)pyridine-2-carboxylic acid methyl ester]	80%	90%	85%	189 to 190 °C
COC(=O)c1nc(-c2ccc(Cl)c(OCC(F)F)c2F)cc(N)c1Cl [Compound 8, 4-Amino-3-chloro-6-[4-chloro-2-fluoro-3-(2,2-difluoroethoxy)phenyl]pyridine-2-carboxylic acid methyl ester]	95%	100%	80%	134 to 136 °C
CCOc1cc(-c2cc(N)c(Cl)c(C(=O)OC)n2)c(F)cc1Cl [Compound 9, 4-Amino-3-chloro-6-(4-chloro-2-fluoro-5-ethoxyphenyl)pyridine-2-carboxylic acid methyl ester]	100%	100%	85%	115 to 116 °C
COCCOc1c(Cl)ccc(-c2cc(N)c(Cl)c(C(=O)OC)n2)c1F [Compound 11, 4-Amino-3-chloro-6-[4-chloro-2-fluoro-3-(methoxyethoxy)phenyl]pyridine-2-carboxylic acid methyl ester]	80%	95%	90%	89 to 90 °C
COC(=O)c1nc(-c2ccc(Cl)c(OC)c2F)cc(NC(C)=O)c1Cl [Compound 20, 4-Acetylamino-3-chloro-6-(4-chloro-2-fluoro-3-methoxyphenyl)pyridine-2-carboxylic acid methyl ester]	–	–	–	159 to 160 °C
COC(=O)c1nc(-c2ccc(F)c(C)c2F)cc(NC(C)=O)c1Cl [Compound 23, 4-acetylamino-3-chloro-6-(2,4-difluoro-3-methylphenyl)-pyridine-2-carboxylic acid methyl ester]	–	–	–	152 to 153 °C
COC(=O)c1nc(-c2ccc(Cl)c(C)c2Cl)cc(NC(C)=O)c1Cl [Compound 24, 4-Acetylamino-3-chloro-6-(2,4-dichloro-3-methylphenyl)pyridine-2-carboxylic acid methyl ester]	–	–	–	172 to 174 °C
COC(=O)c1nc(-c2ccc(Cl)c(C(F)F)c2Cl)cc(NC(C)=O)c1Cl [Compound 30, 4-Acetylamino-3-chloro-6-[2,4-dichloro-3-(difluoromethyl)phenyl]pyridine-2-carboxylic acid, methyl ester]	95%	90%	100%	152 to 153 °C
COC(=O)c1nc(-c2ccc(F)c(F)c2F)cc(NC(C)=O)c1Cl [Compound 33, 4-Acetylamino-3-chloro-6-(2,3,4-trifluorophenyl)pyridine-2-carboxylic acid, methyl ester]	90%	95%	95%	169 to 171 °C
COCOc1c(Cl)ccc(-c2cc(NC(C)=O)c(Cl)c(C(=O)OC)n2)c1F [Compound 34, 4-Acetylamino-3-chloro-6-(4-chloro-2-fluoro-3-methoxymethoxy-phenyl)pyridine-2-carboxylic acid, methyl ester]	–	–	–	122 to 123 °C
COC(=O)c1nc(-c2c(F)cc(Cl)c(OC)c2F)cc(NC(C)=O)c1Cl [Compound 40, 4-Acetylamino-3-chloro-6-(4-chloro-2,6-difluoro-3-methoxyphenyl)pyridine-2-carboxylic acid, methyl ester]	100%	95%	95%	144 to 144.5 °C
COC(=O)c1nc(-c2ccc(F)c(C)c2F)cc(N)c1Cl [Compound 47, 4-Amino-3-chloro-6-(2,4-difluoro-3-methylphenyl)pyridine-2-carboxylic acid methyl ester]	100%	100%	100%	129 to 130 °C
COC(=O)c1nc(-c2ccc(F)c(F)c2F)cc(N)c1Cl [Compound 67, 4-Amino-3-chloro-6-(2,3,4-trifluorophenyl)pyridine-2-carboxylic acid, methyl ester]	100%	100%	100%	163 to 164 °C
COCOc1c(Cl)ccc(-c2cc(N)c(Cl)c(C(=O)OC)n2)c1F [Compound 68, 4-Amino-3-chloro-6-(4-chloro-2-fluoro-3-methoxymethoxyphenyl)pyridine-2-carboxylic acid, methyl ester]	100%	100%	95%	99 °C
COC(=O)c1nc(-c2ccc(Cl)c(OC(F)F)c2F)cc(N)c1Cl [Compound 69, 4-Amino-3-chloro-6-(4-chloro-2-fluoro-3-difluoromethoxyphenyl)pyridine-2-carboxylic acid, methyl ester]	100%	100%	100%	164 °C
COC(=O)c1nc(-c2ccc(C(F)F)c(OC)c2Cl)cc(N)c1Cl [Compound 79, 4-Amino-3-chloro-6-(2-chloro-4-difluoromethyl-3-methoxyphenyl)pyridine-2-carboxylic acid, methyl ester]	100%	90%	95%	134 to 136 °C
CCOc1c(F)ccc(-c2cc(N)c(Cl)c(C(=O)OC)n2)c1F [Compound 80, 4-Amino-3-chloro-6-(2,4-difluoro-3-ethoxyphenyl)pyridine-2-carboxylic acid, methyl ester]	95%	100%	100%	158 to 159 °C
COC(=O)c1nc(-c2sc(F)c(CF)c2Cl)cc(N)c1Cl [Compound 85, 4-amino-3-chloro-6-(4-chloro-2-fluoro-3-fluoromethylthiophenyl)pyridine-2-carboxylic acid methyl ester]	–	–	–	104 to 105 °C
CCOc1cc(-c2cc(N)c(Cl)c(C(=O)O)n2)c(F)cc1Cl [Compound 109, 4-Amino-3-chloro-6-(4-chloro-2-fluoro-5-ethoxyphenyl)pyridine-2-carboxylic acid]	–	–	–	178 to 179 °C (dec.)
CCCCOc1c(Cl)ccc(-c2cc(N)c(Cl)c(C(=O)O)n2)c1F [Compound 124, 4-Amino-3-chloro-6-(4-chloro-3-butoxy-2-fluorophenyl)pyridine-2-carboxylic acid]	–	–	–	157 to 158 °C (dec.)
CCc1c(Cl)ccc(-c2cc(N)c(Cl)c(C(=O)O)n2)c1F [Compound 128, 4-Amino-3-chloro-6-(4-chloro-3-ethyl-2-fluorophenyl)pyridine-2-carboxylic acid]	–	–	–	192 to 193 °C (dec.)
COCOc1c(Cl)ccc(-c2cc(N)c(Cl)c(C(=O)O)n2)c1F [Compound 132, 4-Amino-3-chloro-6-(4-chloro-2-fluoro-3-methoxymethoxyphenyl)pyridine-2-carboxylic acid]	–	–	–	159 °C (dec.)
